From ChEMBL document CHEMBL6109114, “Design, synthesis, and biological evaluation of 4-(2-fluorophenoxy)pyridine derivatives as novel FLT3-ITD inhibitors” (Eur J Med Chem, 2025)
Active and inactive are the calls of the source. The rule behind the calls is not given here.

Assays:
Jurkat = experiment: Antiproliferative activity against non-FLT3 expressing human Jurkat cells assessed as inhibition of cell growth measured after 3 days by celltiter-glo luminescent cell viability assay; format: functional, cell-based; conditions: 72 h
CYP2C9 = CYP2C9 (Homo sapiens, UniProt P11712); experiment: Inhibition of CYP2C9 in human liver microsomes using diclofenac as substrate at 10 uM incubated for 10 mins in presence of NADPH by LC-MS/MS analysis relative to control; format: ADME, Microsome; conditions: probe diclofenac
MOLM-13 [1] = experiment: Induction of cell cycle arrest in human MOLM-13 cells assessed as accumulation of cells at S phase at 1 uM incubated for 48 hrs (reference value: 41.6%); format: functional
[2] = Tmax in mouse at 10 mg/kg, po; format: ADME, organism-based; conditions: in vivo
[3] = target: Mast/stem cell growth factor receptor Kit (Homo sapiens) (UniProt P10721); experiment: Inhibition of human c-Kit at 1 uM by Eurofins-DiscoverX assay
MOLM-13 [4] = experiment: Induction of cell cycle arrest in human MOLM-13 cells assessed as accumulation of cells at S phase at 0.3 uM incubated for 48 hrs (reference value: 41.6%); format: functional
[5] = target: CDK4/Cyclin D3 (Homo sapiens) (UniProt P11802+P30281); experiment: Inhibition of human CDK4/cyclinD3 at 1 uM by Eurofins-DiscoverX assay; format: protein-complex assay
[6] = Volume of distribution in mouse at 5 mg/kg, iv; format: ADME, organism-based; conditions: in vivo
CYP1A2 = CYP1A2 (Homo sapiens, UniProt P05177); experiment: Inhibition of CYP1A2 in human liver microsomes using phenacetin as substrate at 10 uM incubated for 10 mins in presence of NADPH by LC-MS/MS analysis relative to control; format: ADME, Microsome; conditions: probe phenacetin
MOLM-14 = experiment: Antiproliferative activity against human MOLM-14 cells harbouring FLT3-ITD assessed as inhibition of cell growth measured after 3 days by celltiter-glo luminescent cell viability assay; format: functional, cell-based; conditions: MOLM-14, 72 h
[7] = target: Voltage-gated inwardly rectifying potassium channel KCNH2 (Homo sapiens, UniProt Q12809); experiment: Inhibition of human ERG expressed in CHO cells by Qpatch assay; format: toxicity, cell-based
[8] = Antiproliferative activity against non-FLT3 expressing human TMD8 cells assessed as inhibition of cell growth measured after 3 days by celltiter-glo luminescent cell viability assay; format: functional, cell-based; conditions: TMD8, 72 h
MOLM-13 [9] = experiment: Induction of cell cycle arrest in human MOLM-13 cells assessed as accumulation of cells at G1 phase at 0.3 uM incubated for 48 hrs (reference value: 40.3%); format: functional
BaF3 [10] = experiment: Antiproliferative activity against mouse BaF3 cells harbouring TEL-FLT3 assessed as inhibition of cell growth measured after 3 days by celltiter-glo luminescent cell viability assay; format: functional, cell-based; conditions: BaF3, 72 h
[11] = Metabolic stability in human liver microsomes assessed as parent compound remaining at 1 uM measured after 60 mins by LC-MS/MS analysis; format: ADME, Microsome; conditions: read-out: Stability
[12] = Metabolic stability in Sprague-Dawley rat liver microsomes assessed as parent compound remaining at 1 uM measured after 60 mins by LC-MS/MS analysis; format: ADME, Microsome; conditions: read-out: Stability
BaF3 [13] = experiment: Antiproliferative activity against mouse BaF3 cells harbouring FLT3-ITD-F691L mutant assessed as inhibition of cell growth measured after 3 days by celltiter-glo luminescent cell viability assay; format: functional, cell-based; conditions: BaF3, 72 h
[14] = Antiproliferative activity against human PBMC cells assessed as inhibition of cell growth measured after 3 days by celltiter-glo luminescent cell viability assay; format: toxicity, cell-based
[15] = Metabolic stability in Sprague-Dawley rat liver microsomes assessed as parent compound remaining at 1 uM measured after 60 mins in presence of NADPH regenerating system by LC-MS/MS analysis; format: ADME, Microsome; conditions: read-out: Stability
[16] = Half life in mouse at 5 mg/kg, iv; format: ADME, organism-based; conditions: in vivo
[17] = target: CDK3/Cyclin E (Homo sapiens) (UniProt P24864+Q00526); experiment: Inhibition of human CDK3/CyclinE assessed as remaining activity at 1 uM by Eurofins-DiscoverX assay relative to control; format: protein-complex assay
HL-60 = experiment: Antiproliferative activity against human HL-60 cells harbouring wild type FLT3 assessed as inhibition of cell growth measured after 3 days by celltiter-glo luminescent cell viability assay; format: functional, cell-based; conditions: HL-60, 72 h
BaF3 [18] = experiment: Antiproliferative activity against mouse BaF3 cells harbouring VEGFR2 assessed as inhibition of cell growth measured after 3 days by celltiter-glo luminescent cell viability assay; format: functional, cell-based; conditions: BaF3, 72 h
MV4-11 = experiment: Antiproliferative activity against human MV4-11 cells harbouring FLT3-ITD assessed as inhibition of cell growth measured after 3 days by celltiter-glo luminescent cell viability assay; format: functional, cell-based; conditions: MV4-11, 72 h
[19] = Metabolic stability in Beagle dog liver microsomes assessed as parent compound remaining at 1 uM measured after 60 mins in presence of NADPH regenerating system by LC-MS/MS analysis; format: ADME, Canis lupus familiaris, Microsome; conditions: read-out: Stability
BaF3 [20] = experiment: Antiproliferative activity against mouse BaF3 cells harbouring FLT3-ITD assessed as inhibition of cell growth measured after 3 days by celltiter-glo luminescent cell viability assay; format: functional, cell-based; conditions: BaF3, 72 h
[21] = target: Receptor-type tyrosine-protein kinase FLT3 (Homo sapiens) (UniProt P36888); experiment: Inhibition of FLT3 phosphorylation in human MOLM-13 cells at 0.2 uM measured after 2 hrs by Western blot analysis relative to control; format: cell-based
[22] = Metabolic stability in Sprague-Dawley rat liver microsomes assessed as intrinsic clearance at 1 uM measured up to 60 mins in presence of NADPH regenerating system by LC-MS/MS analysis; format: ADME, Microsome; conditions: read-out: CLH
[23] = target: Cyclin-dependent kinase 1/cyclin B1 (Homo sapiens) (UniProt P06493+P14635); experiment: Inhibition of human CDK1/CyclinB1 assessed as remaining activity at 1 uM by Eurofins-DiscoverX assay relative to control; format: protein-complex assay
MOLM-13 [24] = experiment: Induction of cell cycle arrest in human MOLM-13 cells assessed as accumulation of cells at S phase at 0.1 uM incubated for 48 hrs (reference value: 41.6%); format: functional
MOLM-13 [25] = experiment: Induction of cell cycle arrest in human MOLM-13 cells assessed as accumulation of cells at G1 phase at 0.1 uM incubated for 48 hrs (reference value: 40.3%); format: functional
MOLM-13 [26] = experiment: Induction of apoptosis in human MOLM-13 cells assessed as late apoptotic cells at 0.3 uM incubated for 48 hrs by Annexin V-FITC/PI staining based flow cytometry analysis (reference value: 3.10%); format: functional
[27] = target: CDK6/cyclin D3 (Homo sapiens) (UniProt P30281+Q00534); experiment: Inhibition of human CDK6/cyclinD3 assessed as remaining activity at 1 uM by Eurofins-DiscoverX assay relative to control; format: protein-complex assay
MOLM-13 [28] = experiment: Induction of apoptosis in human MOLM-13 cells assessed as late apoptotic cells at 0.1 uM incubated for 48 hrs by Annexin V-FITC/PI staining based flow cytometry analysis (reference value: 3.10%); format: functional
MOLM-13 [29] = experiment: Antitumor activity against human MOLM-13 xenografted in male nude mouse assessed as tumor growth inhibition at 30 mg/kg, po administered once daily for 14 days by vernier caliper method relative to control; format: functional; conditions: MOLM-13, 336 h, time 14 day, read-out: TGI
MOLM-13 [30] = experiment: Induction of apoptosis in human MOLM-13 cells assessed as necrotic cells at 1 uM incubated for 48 hrs by Annexin V-FITC/PI staining based flow cytometry analysis (reference value: 0.077%); format: functional

CYP1A2, sequence (P05177 whole entry): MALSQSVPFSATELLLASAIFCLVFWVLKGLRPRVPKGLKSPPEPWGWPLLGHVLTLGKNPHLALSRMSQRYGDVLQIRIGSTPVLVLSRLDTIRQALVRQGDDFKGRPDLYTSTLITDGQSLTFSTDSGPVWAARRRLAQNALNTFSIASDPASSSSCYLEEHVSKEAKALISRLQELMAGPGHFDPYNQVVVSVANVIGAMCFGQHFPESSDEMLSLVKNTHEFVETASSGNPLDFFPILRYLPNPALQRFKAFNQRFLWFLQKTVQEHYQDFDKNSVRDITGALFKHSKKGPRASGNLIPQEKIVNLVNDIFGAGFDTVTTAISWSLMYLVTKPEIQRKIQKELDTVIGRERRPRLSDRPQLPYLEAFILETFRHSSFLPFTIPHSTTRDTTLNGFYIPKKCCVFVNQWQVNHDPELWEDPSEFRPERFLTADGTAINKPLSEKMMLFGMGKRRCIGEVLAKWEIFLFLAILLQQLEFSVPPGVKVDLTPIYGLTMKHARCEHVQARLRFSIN
CDK3/Cyclin E (Homo sapiens), sequence (P24864 whole entry, looked up): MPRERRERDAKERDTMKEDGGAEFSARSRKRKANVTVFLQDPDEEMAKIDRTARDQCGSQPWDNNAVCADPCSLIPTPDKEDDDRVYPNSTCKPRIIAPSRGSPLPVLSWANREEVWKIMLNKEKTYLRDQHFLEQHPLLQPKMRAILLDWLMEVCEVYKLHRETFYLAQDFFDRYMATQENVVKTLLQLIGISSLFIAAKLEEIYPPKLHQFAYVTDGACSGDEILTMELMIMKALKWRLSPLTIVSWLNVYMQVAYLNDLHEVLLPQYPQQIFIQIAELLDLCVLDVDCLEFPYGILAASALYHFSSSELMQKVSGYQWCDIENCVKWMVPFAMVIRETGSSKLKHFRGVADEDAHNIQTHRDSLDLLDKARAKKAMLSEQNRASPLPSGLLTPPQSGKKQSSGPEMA
CDK3/Cyclin E (Homo sapiens), sequence (Q00526 whole entry, looked up): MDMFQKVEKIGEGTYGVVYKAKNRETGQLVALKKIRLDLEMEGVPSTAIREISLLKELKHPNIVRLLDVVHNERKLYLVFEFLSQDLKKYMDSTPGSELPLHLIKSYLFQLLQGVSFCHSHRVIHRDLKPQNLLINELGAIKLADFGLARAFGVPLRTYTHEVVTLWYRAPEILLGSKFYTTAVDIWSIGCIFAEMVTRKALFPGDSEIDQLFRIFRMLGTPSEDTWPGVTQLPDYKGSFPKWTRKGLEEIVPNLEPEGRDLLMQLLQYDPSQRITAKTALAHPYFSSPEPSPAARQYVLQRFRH
Receptor-type tyrosine-protein kinase FLT3 (Homo sapiens), sequence (P36888 whole entry): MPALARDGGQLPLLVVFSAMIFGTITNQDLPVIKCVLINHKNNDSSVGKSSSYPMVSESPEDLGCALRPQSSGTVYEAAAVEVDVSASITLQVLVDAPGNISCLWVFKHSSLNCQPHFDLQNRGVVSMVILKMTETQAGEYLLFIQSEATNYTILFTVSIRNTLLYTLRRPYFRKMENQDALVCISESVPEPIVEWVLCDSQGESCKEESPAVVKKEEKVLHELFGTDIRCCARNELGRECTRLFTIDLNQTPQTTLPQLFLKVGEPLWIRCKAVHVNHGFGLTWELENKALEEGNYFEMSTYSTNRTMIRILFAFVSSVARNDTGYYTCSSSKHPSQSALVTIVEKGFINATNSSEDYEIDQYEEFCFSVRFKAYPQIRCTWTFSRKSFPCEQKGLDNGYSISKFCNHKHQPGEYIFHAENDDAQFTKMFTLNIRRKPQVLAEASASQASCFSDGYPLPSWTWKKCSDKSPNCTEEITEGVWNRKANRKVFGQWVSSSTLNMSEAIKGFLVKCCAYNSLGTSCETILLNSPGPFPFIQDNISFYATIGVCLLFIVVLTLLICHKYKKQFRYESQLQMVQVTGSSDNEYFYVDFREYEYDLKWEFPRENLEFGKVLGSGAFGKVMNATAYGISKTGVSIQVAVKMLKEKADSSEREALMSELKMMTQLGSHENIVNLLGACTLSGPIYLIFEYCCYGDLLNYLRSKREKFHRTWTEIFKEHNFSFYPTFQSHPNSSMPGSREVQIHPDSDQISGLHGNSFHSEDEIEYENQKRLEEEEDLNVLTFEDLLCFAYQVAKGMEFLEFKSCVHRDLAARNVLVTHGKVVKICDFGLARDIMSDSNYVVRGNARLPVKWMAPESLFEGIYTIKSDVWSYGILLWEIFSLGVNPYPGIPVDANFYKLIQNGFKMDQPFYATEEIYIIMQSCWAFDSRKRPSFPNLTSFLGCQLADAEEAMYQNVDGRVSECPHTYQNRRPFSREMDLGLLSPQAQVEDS
Voltage-gated inwardly rectifying potassium channel KCNH2, sequence (Q12809 whole entry): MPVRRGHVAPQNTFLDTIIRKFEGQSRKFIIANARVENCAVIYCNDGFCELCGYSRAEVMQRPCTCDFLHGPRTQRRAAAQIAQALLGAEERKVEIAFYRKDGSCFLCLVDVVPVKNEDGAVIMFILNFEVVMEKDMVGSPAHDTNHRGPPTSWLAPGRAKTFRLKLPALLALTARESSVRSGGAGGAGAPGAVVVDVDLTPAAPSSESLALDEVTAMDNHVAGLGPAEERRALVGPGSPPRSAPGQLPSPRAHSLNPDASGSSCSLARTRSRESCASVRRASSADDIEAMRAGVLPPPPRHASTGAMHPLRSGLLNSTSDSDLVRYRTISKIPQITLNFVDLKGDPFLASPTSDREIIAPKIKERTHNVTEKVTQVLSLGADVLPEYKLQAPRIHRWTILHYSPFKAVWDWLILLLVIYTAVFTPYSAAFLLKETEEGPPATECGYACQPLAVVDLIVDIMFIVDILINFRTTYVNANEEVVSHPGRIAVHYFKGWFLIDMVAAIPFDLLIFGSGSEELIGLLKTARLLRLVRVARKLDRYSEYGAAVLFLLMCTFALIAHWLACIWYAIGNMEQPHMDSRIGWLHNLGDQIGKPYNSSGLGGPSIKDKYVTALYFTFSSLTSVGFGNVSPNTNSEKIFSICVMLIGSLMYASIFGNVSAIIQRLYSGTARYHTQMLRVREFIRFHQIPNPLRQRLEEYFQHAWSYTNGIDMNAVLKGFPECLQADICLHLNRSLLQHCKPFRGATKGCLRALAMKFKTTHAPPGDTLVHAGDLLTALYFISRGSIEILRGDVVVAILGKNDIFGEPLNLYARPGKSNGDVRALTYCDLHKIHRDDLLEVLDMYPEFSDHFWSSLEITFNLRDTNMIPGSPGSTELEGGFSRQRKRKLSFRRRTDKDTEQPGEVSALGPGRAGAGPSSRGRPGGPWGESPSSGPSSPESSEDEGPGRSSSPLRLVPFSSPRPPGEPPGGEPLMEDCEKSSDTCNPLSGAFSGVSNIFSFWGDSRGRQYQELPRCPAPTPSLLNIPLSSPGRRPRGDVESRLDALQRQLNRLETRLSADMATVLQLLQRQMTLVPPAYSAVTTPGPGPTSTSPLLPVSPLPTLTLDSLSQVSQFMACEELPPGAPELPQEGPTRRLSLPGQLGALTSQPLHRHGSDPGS
Mast/stem cell growth factor receptor Kit (Homo sapiens), sequence (P10721 whole entry): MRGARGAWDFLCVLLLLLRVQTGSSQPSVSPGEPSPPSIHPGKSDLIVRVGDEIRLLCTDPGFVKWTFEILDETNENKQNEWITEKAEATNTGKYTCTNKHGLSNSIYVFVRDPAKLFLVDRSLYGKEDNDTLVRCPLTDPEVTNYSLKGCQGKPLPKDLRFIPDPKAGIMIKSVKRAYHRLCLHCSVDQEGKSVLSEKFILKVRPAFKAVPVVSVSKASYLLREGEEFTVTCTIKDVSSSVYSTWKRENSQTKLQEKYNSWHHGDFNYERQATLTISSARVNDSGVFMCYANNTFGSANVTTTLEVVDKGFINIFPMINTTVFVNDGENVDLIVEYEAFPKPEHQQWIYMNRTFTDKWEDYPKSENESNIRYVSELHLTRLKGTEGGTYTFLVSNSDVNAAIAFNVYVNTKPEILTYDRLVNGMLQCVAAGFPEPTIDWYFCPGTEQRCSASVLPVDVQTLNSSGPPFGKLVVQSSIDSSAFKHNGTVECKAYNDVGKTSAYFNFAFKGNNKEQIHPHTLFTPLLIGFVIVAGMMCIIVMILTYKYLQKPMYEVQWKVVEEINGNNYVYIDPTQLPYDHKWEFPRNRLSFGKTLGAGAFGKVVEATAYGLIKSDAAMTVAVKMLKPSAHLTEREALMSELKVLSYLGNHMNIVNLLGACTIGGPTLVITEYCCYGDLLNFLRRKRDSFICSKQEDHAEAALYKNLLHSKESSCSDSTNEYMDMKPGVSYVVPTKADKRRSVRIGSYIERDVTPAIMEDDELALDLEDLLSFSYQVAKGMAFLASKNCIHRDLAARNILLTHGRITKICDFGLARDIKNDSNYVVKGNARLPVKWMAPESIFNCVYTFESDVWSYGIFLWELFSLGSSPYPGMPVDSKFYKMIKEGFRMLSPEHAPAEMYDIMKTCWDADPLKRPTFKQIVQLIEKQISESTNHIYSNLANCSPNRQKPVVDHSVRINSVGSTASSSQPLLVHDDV
CYP2C9, sequence (P11712 whole entry): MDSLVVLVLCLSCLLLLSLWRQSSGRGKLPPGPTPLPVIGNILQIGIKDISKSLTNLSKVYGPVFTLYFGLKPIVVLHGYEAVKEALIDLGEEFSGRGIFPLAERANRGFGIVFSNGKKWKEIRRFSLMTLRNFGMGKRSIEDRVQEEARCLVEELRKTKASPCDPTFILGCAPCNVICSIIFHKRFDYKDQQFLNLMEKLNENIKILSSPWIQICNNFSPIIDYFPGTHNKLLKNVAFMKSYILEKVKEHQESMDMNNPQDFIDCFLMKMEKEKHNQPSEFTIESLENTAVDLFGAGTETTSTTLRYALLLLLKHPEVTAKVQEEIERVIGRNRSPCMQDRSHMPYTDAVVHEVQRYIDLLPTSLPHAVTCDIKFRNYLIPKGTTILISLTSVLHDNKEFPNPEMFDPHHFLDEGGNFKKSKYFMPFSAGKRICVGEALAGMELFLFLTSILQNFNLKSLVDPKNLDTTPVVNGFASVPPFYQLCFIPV

IC50 (Jurkat): > 30 µM
inhibition at 10 min, 10 µM (CYP2C9): 25.6%
Tmax [2]: 1.17 h
inhibition [3]: inactive
inhibition [5]: inactive
Vd [6]: 20.9 L/kg
inhibition at 10 min, 10 µM (CYP1A2): 9.5%
IC50 (MOLM-14): 0.51 µM
IC50 (BaF3 [10]): 3.69 µM
remaining at 1 h, 1 µM [11]: 99.6%
remaining at 1 h, 1 µM [12]: 108%
IC50 (BaF3 [13]): 4.9 µM
remaining at 1 h, 1 µM [15]: 69.2%
half-life [16]: 6.57 h
Activity [17]: 88%
IC50 (HL-60): 18.9 µM
IC50 (BaF3 [18]): 0.31 µM
IC50 (MV4-11): 0.39 µM
remaining at 1 h, 1 µM [19]: 72.7%
IC50 (BaF3 [20]): 0.19 µM
inhibition [21]: 100%
microsomal CLint at 1 µM [22]: 11.8 µL/min/mg
Activity [23]: 88%
Activity [27]: 88%
SMILES: Cc1cc(=O)n(-c2cc(Cl)ccc2F)nc1C(=O)Nc1ccc(Oc2ccnc(NC(=O)N3CC(O)C3)c2)c(F)c1
Activity (MOLM-13 [1]): 21.2%
Activity (MOLM-13 [4]): 17.1%
IC50 [7]: > 30 µM
IC50 [8]: 22.3 µM
Activity (MOLM-13 [9]): 75.8%
IC50 at 3 days [14]: > 30 µM
Activity (MOLM-13 [24]): 40.5%
Activity (MOLM-13 [25]): 50.1%
Activity (MOLM-13 [26]): 12.3%
Activity (MOLM-13 [28]): 3.37%
inhibition in vivo at 30 mg/kg (MOLM-13 [29]): 77.1%
Activity (MOLM-13 [30]): 0.74%
